# Results: patent US7812116B2, “Immunogenic peptides” (Rush University Medical Center, priority 2003, dated 2010)
# Key:
# dendritic cells = assay: Phenotypic analysis of mature dendritic (mDC) and T2 antigen-presenting cells; type: cell-based, human; settings: DCs from CD14+ monocytes, maturation factor during last three days of culture
# Experimental: Immature DCs can be generated according to modified protocols of Romani N, et al., J Exp Med 180, pp. 83-89, 1994; and Bakker et al., Cancer Res 55, pp. 5330-5334, 1995. Briefly, fresh or frozen/thawed CD14+cells are cultured in RPMI 1640 medium (Gibco-Life Technologies, Gaithersburg, Md.) supplemented with 10% FCS, 1,000 U/ml GM-CSF and 1,000 U/ml IL-4. The cell cultures are fed with fresh medium and GM-CSF and IL-4 every other day and cell differentiation is monitored by light microscopy. On day 7, the cultures are supplemented with different combinations of DC maturation factors such as lipopolysaccharide (100 U/ml), TNF-α (10 ng/ml), or IFN-α (1,000 U/ml) plus TNF-α (10 ng/ml). After three days of incubation, mature DCs (mDC) are harvested and their phenotypes are evaluated by flow cytometry. The maturation factor(s) yielding optimal DC maturation are determined and used to generate mDCs for peptide pulsing in upcoming studies. In this example, immature DCs obtained by the culture of CD14+monocytes with GM-CSF (1,000 U/ml) and IL-4 (1,000 U/ml) are induced to undergo maturation by incubation with LPS (100 Units/ml), TNF-α (10 ng/ml) or TNF-α (10 ng/ml)+IFN-γ (50 ng/ml) during the final three days of the culture period. […] HLA-DR and no expression of CD3 or CD14 (data not shown). The highest up-regulation of the co-immunostimulatory (CD80 and CD86) and HLA-A2.1 MHC class I molecules is detected on DCs treated with TNF-α+IFN-γ (Table 5). […] The phenotype of the T2 cell line is evaluated to determine its potential for use as an alternative type of antigen presenting cell. […] The expression of CD80 is higher on T2 cells compared to mDCs.
# HLA-A2.1 = HLA-A2.1 (Homo sapiens, UniProt P04439, D140Y/D185E/D98H/E176V/E277Q/G131W/G231S/I119V/I121R/I166T/I218V/L300P/L318F/N151K/N90K/P208A/P217A/Q86G/Q94H/R138H/R169H/T345S); assay: Peptide/HLA-A2.1 complex stability on T2 cells under Brefeldin A treatment; type: binding
Substance,CD80 mean channel fluorescence (MCF) (dendritic cells),CD86 mean channel fluorescence (MCF) (dendritic cells),HLA-A2.1 mean channel fluorescence (MCF) (dendritic cells),HLA-A2.1 binding and stability in words (HLA-A2.1)
"lipopolysaccharide [LPS, reference compound]",71,40,316,–
"SLFLGILSV (listed as Homo sapiens) [SEQ ID NO: 6, CD20 9-mer fragment]",–,–,–,good and prolonged stable binding
TNF-α,107,96,475,–
"TLAYLIFCL (listed as Homo sapiens) [SEQ ID NO: 2, CD19 9-mer fragment]",–,–,–,good and prolonged stable binding
"LLFLTPMEV (listed as Homo sapiens) [SEQ ID NO: 3, CD19 9-mer fragment]",–,–,–,good and prolonged stable binding
